# Patent US8445207B2, “Genes based on thalidomide, valproic acid and methotrexate treatment for screening of drug inducing teratogenicity and screening method using thereof” (priority 2009, dated 2013)
# System: JEG-3 (human placental choriocarcinoma cell line)
# Assay: Oligo microarray gene expression in drug-treated JEG-3 (Cy5 treated / Cy3 control)
# Type: cell-based
# Description: Thalidomide, valproic acid, and methotrexate were treated to human placental choriocarcinoma cell line at the concentrations determined above (Inhibition concentration: the concentration that can kill approximately 30% of the total cells, that is the concentration of 70% viability, IC30). mRNA was extracted from the drug treated cell line, followed by synthesis of cDNA which was labeled with Cy5. The non-treated control was labeled with Cy3. The fluorescence labeled cDNA was hybridized with 41K (thalidomide), 44K (valproic acid, methotrexate) human whole genome oligomicroarray chips (Agilent, USA), followed by fluorescent image scanning to analyze gene expression patterns (see FIG. 4). Volcano Plot of each substance was also attached. Y axis indicates probability (generally converted by −log 10). X axis indicates differential expression, which is presented by log-ratio.
# Total RNA was separated from the treated cell by using trizol reagent (Invitrogen Life Technologies, USA) according to the manufacture's instructions, followed by purification using RNeasy mini kit (Qiagen, USA). Genomic DNA was eliminated during RNA purification using RNase-free DNase set (Qiagen, USA).
# 30 μg of the total RNA obtained above and 2 μg (1 μg/μl) of oligo (dT) primer were mixed, followed by reaction at 65° C. for 10 minutes. Annealing was performed in ice right after the reaction. Reagents were prepared as shown in Table 1 for reverse transcription of the annealed RNA.
# The total RNA separated from the control group JEG-3 cells was labeled with Cy3-dUTP (green) and the total RNA separated from the experiment group JEG-3 cells treated with thalidomide, valproic acid and methotrexate was labeled with Cy5-dUTP (red). At this time, the two samples were mixed and purified by Microcon YM-30 column (Millipore, USA).
# Hybridization and washing were performed by the manufacturer's (GenoCheck, Korea) instructions. Particularly, hybridization was performed in a 62° C. oven for 12 hours. As a DNA microarray chip, 44 k whole human genome oligo microarray (Agilent, USA) was used. After washing (2 minutes with 2×SSC/0.1% SDS, three minutes with 1×SSC, 2 minutes with 0.2×SSC), the slide was dried by centrifugation at 800 rpm for 3 minutes.
# Hybridization image on the slide was scanned with Genepix 4000B (Axon Instruments, USA). Fluorescence image of the chip on which non-hybridized genes had been washed out was obtained by using laser fluorescence scanner. Green fluorescence image indicates the activity of gene specifically expressed in the control group and red fluorescence image indicates the activity of gene specifically expressed in the experimental group. […] Scanned image was analyzed by using GenePix 4.1 software (Axon Instruments, USA) to calculate gene expression rate.
# [1] = out of 21797 (thalidomide), 21921 (valproic acid), 24006 (methotrexate) genes
# [2] = treated at IC30, up-regulated gene, (h) Nervous system development
smiles,measurement,setting,value
"CCCC(CCC)C(=O)O [VPA, valproic acid]","cDNA microarray (Cy3/Cy5 ratio), KIAA0310",GenBank AB002308,1.59
same,"cDNA microarray (Cy3/Cy5 ratio), ATP10B",GenBank AB018258,2.03
same,"cDNA microarray (Cy3/Cy5 ratio), TTF2",GenBank AB209845,1.81
same,"cDNA microarray (Cy3/Cy5 ratio), TncRNA",GenBank AF001893,3.61
same,"cDNA microarray (Cy3/Cy5 ratio), C4orf19",GenBank AK001879,1.87
same,"cDNA microarray (Cy3/Cy5 ratio), CYP19A1",GenBank AK023571,1.78
same,"cDNA microarray (Cy3/Cy5 ratio), SLC40A1",GenBank AK023574,1.7
same,"cDNA microarray (Cy3/Cy5 ratio), ABTB2",GenBank AK095632,1.6
same,"cDNA microarray (Cy3/Cy5 ratio), TUBB3",GenBank AK122757,1.7
same,"cDNA microarray (Cy3/Cy5 ratio), MGC27016",GenBank AK125877,2.62
same,"cDNA microarray (Cy3/Cy5 ratio), GLCCI1",GenBank AK126731,2.27
same,"cDNA microarray (Cy3/Cy5 ratio), TFCP2L4",GenBank BC036890,3.12
same,"cDNA microarray (Cy3/Cy5 ratio), RGS2",GenBank BC042755,3.04
same,"cDNA microarray (Cy3/Cy5 ratio), SIAT7A",GenBank BC063830,1.69
same,"cDNA microarray (Cy3/Cy5 ratio), B7-H4",GenBank BX648021,0.1
same,"cDNA microarray (Cy3/Cy5 ratio), COBLL1",GenBank BX649112,1.52
same,"cDNA microarray (Cy3/Cy5 ratio), CGA",GenBank NM_000735,2.14
same,"cDNA microarray (Cy3/Cy5 ratio), PARP1",GenBank NM_001618,0.61
same,"cDNA microarray (Cy3/Cy5 ratio), SERPINB9",GenBank NM_004155,3.02
same,"cDNA microarray (Cy3/Cy5 ratio), ST8SIA4",GenBank NM_005668,1.79
same,"cDNA microarray (Cy5 treated / Cy3 control ratio), ABL1",GenBank NM_007313,0.3
same,"cDNA microarray (Cy3/Cy5 ratio), GRLF1",GenBank NM_024342,0.55
same,"cDNA microarray (Cy3/Cy5 ratio), LGP1",GenBank NM_032484,0.52
same,"cDNA microarray (Cy3/Cy5 ratio), NCOA3",GenBank NM_181659,1.62
same,"cDNA microarray (Cy3/Cy5 ratio), SR140",GenBank XM_031553,0.36
same,"cDNA microarray (Cy3/Cy5 ratio), SLC7A8",GenBank Y18483,2.48
same,"Ratio of intermediate value, FLJ13855","Genbank AK091644, drug at IC30",0.44
same,"Ratio of intermediate value, GRLF1","Genbank BI494022, NM_024342, drug at IC30",0.55
same,"Ratio of intermediate value, B7-H4","Genbank BX648021, drug at IC30",0.10
same,"Ratio of intermediate value, PARP1","Genbank NM_001618, drug at IC30",0.61
same,"Ratio of intermediate value, ABL1","Genbank NM_007313, drug at IC30",0.30
same,"Ratio of intermediate value, LGP1","Genbank NM_032484, drug at IC30",0.52
same,"Ratio of intermediate value, SR140","Genbank XM_031553, drug at IC30",0.36
same,genes down-regulated (ratio of intermediate value less than 0.666),"JEG-3, drug at IC30, 48 hours",5.5%
same,genes up-regulated (ratio of intermediate value more than 1.5),"JEG-3, drug at IC30, 48 hours",5.54%
same,number of genes down-regulated,[1],1196
same,number of genes up-regulated,[1],1215
same,"Ratio of intermediate value, gene ALDH5A1 (NM_170740, ALDEHYDE DEHYDROGENASE 5 FAMILY, MEMBER A1 (SUCCINATE-SEMIALDEHYDE DEHYDROGENASE))",[2],4.68
same,"Ratio of intermediate value, gene ALS2 (NM_020919, AMYOTROPHIC LATERAL SCLEROSIS 2 (JUVENILE))",[2],2.40
same,"Ratio of intermediate value, gene C22orf9 (AY509035, ROUND-ABOUT, AXON GUIDANCE RECEPTOR, HOMOLOG 3 (DROSOPHILA))",[2],2.30
same,"Ratio of intermediate value, gene DLX2 (AB208823, NM_004405, DISTAL-LESS HOMEOBOX 2)",[2],3.18
same,"Ratio of intermediate value, gene DPYSL2 (NM_001386, DIHYDROPYRIMIDINASE-LIKE 2)",[2],3.34
same,"Ratio of intermediate value, gene DPYSL5 (AL713706, DIHYDROPYRIMIDINASE-LIKE 5)",[2],2.57
same,"Ratio of intermediate value, gene EDG1 (BC018650, ENDOTHELIAL DIFFERENTIATION, SPHINGOLIPID G-PROTEIN-COUPLED RECEPTOR, 1)",[2],2.34
same,"Ratio of intermediate value, gene EFCBP1 (L20470, VERY LOW DENSITY LIPOPROTEIN RECEPTOR)",[2],2.10
same,"Ratio of intermediate value, gene FABP7 (NM_001446, FATTY ACID BINDING PROTEIN 7, BRAIN)",[2],9.51
same,"Ratio of intermediate value, gene FLJ20489 (AK056650, IMMUNOGLOBULIN SUPERFAMILY, MEMBER 9)",[2],2.50
same,"Ratio of intermediate value, gene FLJ31842 (AY643499, HEXOSAMINIDASE B (BETA POLYPEPTIDE))",[2],2.38
same,"Ratio of intermediate value, gene GJA1 (NM_000165, GAP JUNCTION PROTEIN, ALPHA 1, 43 KDA (CONNEXIN 43))",[2],4.30
same,"Ratio of intermediate value, gene GRB14 (BM906235, INHIBITOR OF DNA BINDING 3, DOMINANT NEGATIVE HELIX-LOOP-HELIX PROTEIN)",[2],4.33
